In ChEMBL document CHEMBL1201862, “PubChem BioAssay data set” (2004):
Where “and” joins values, the source holds several entries; their conditions need not be identical. Identical values can stand only once.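 Method: 48-hour compound exposure of cells in 96-well plates, five concentrations, linear interpolation of endpoints. GI50 is the concentration that inhibits growth by half.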 Calls of active or inactive are those of the source. Rule as the data show it: active = GI50 up to about 1.1 µM and inactive = higher.

Assays:
Test in all cases: NCI tumour cell line growth inhibition, 48 h
OVCAR-5 = system: OVCAR-5
IGROV-1 = system: IGROV-1
RXF 393 = system: RXF 393
OVCAR-4 = system: OVCAR-4
HT-29 = system: HT-29
COLO 205 = system: COLO 205
NCI-H460 = system: NCI-H460
K562 = system: K562
SK-MEL-5 = system: SK-MEL-5
SNB-19 = system: SNB-19
UO-31 = system: UO-31
MOLT-4 = system: MOLT-4
HCC 2998 = system: HCC 2998
SN12C = system: SN12C
LOX IMVI = system: LOX IMVI
SW-620 = system: SW-620
RPMI-8226 = system: RPMI-8226

Measured: GI50

C[Si](C)(C)C#C[I+]c1ccccc1
inactive: OVCAR-5 > 100 µM | IGROV-1 92 µM | RXF 393 47.4 µM | OVCAR-4 36.2 µM | HT-29 32.9 µM | COLO 205 17.7 µM | NCI-H460 > 100 µM | K562 41.1 µM | SK-MEL-5 45.9 µM | SNB-19 > 100 µM | UO-31 67 µM | MOLT-4 29.4 µM | HCC 2998 > 100 µM | SN12C 21.7 µM | LOX IMVI 19.1 µM

O/N=C1/C(=C/c2ccc(Cl)cc2)CCCC1C(NO)c1ccc(Cl)cc1 (configuration not stated)
inactive: IGROV-1 38.2 µM | RXF 393 12 µM | OVCAR-4 15.6 µM | HT-29 19.2 µM | COLO 205 20.7 µM | SW-620 30.2 µM | NCI-H460 17.3 µM | K562 24.4 µM | SK-MEL-5 22.7 µM | SNB-19 24.2 µM | RPMI-8226 20.9 µM | UO-31 16.6 µM | MOLT-4 14.7 µM | HCC 2998 15.5 µM | SN12C 19.3 µM

O=C(c1ccccc1)c1nnn(Cc2ccccc2Cn2nnc(C(=O)c3ccccc3)c2C(=O)c2ccccc2)c1C(=O)c1ccccc1
inactive: OVCAR-5 > 100 µM | IGROV-1 94.4 µM | OVCAR-4 > 100 µM | HT-29 > 100 µM | COLO 205 50.5 µM | SW-620 > 100 µM | NCI-H460 > 100 µM | K562 > 100 µM | SK-MEL-5 > 100 µM | SNB-19 > 100 µM | RPMI-8226 > 100 µM | UO-31 > 100 µM | MOLT-4 > 100 µM | HCC 2998 > 100 µM | SN12C > 100 µM | LOX IMVI > 100 µM

CC(C)=CCSC1CC2C(CC1(C)O)C2(C)C (configuration not stated)
inactive: OVCAR-5 14.9 µM and 16.5 µM | IGROV-1 19 µM and 16.9 µM | OVCAR-4 19.7 µM and 15.8 µM | HT-29 15.7 µM and 14.9 µM | COLO 205 17.1 µM and 18.5 µM | SW-620 19.6 µM and 17.1 µM | NCI-H460 18.4 µM and 14.2 µM | SNB-19 17.2 µM and 19.3 µM | RPMI-8226 17.5 µM and 21.9 µM | MOLT-4 13.6 µM and 20.9 µM | HCC 2998 1.83 µM and 2.82 µM | SN12C 17 µM and 15.6 µM | LOX IMVI 16.2 µM and 15.1 µM

COC1C(OC(=S)Nc2ccccc2)c2ccccc2N1C(C)=O (configuration not stated)
inactive: IGROV-1 80.4 µM | RXF 393 26.5 µM | OVCAR-4 75.9 µM | HT-29 99.1 µM | COLO 205 > 100 µM | SW-620 34 µM | NCI-H460 > 100 µM | K562 > 100 µM | SNB-19 > 100 µM | RPMI-8226 50.4 µM | UO-31 98.4 µM | MOLT-4 44 µM | HCC 2998 > 100 µM | SN12C > 100 µM

Cc1ccc(-c2cc(=S)n(-c3ccccc3)c3[nH]c(=S)n(-c4ccccc4)c(=N)c23)cc1
inactive: OVCAR-5 > 100 µM | IGROV-1 > 100 µM | OVCAR-4 > 100 µM | HT-29 > 100 µM | COLO 205 > 100 µM | SW-620 > 100 µM | NCI-H460 > 100 µM | K562 > 100 µM | SK-MEL-5 > 100 µM | SNB-19 > 100 µM | RPMI-8226 > 100 µM | UO-31 > 100 µM | MOLT-4 > 100 µM | HCC 2998 > 100 µM

COc1ccc2c(c1)[n+]([O-])c(-c1ccccc1Cl)c(N)[n+]2[O-]
inactive: OVCAR-5 > 100 µM | IGROV-1 79.1 µM | OVCAR-4 > 100 µM | HT-29 62.5 µM | COLO 205 18.5 µM | SW-620 61.7 µM | NCI-H460 54.5 µM | K562 99.1 µM | SK-MEL-5 39.8 µM | SNB-19 > 100 µM | RPMI-8226 88.1 µM | UO-31 99.8 µM | MOLT-4 96.8 µM | SN12C > 100 µM

COc1cc(/C=C2\C(=O)N(C(=O)c3ccc(NC(C)=O)cc3)N=C2C)ccc1O
inactive: OVCAR-5 > 100 µM | OVCAR-4 > 100 µM | HT-29 > 100 µM | COLO 205 > 100 µM | SW-620 > 100 µM | NCI-H460 > 100 µM | K562 > 100 µM | SK-MEL-5 > 100 µM | SNB-19 > 100 µM | RPMI-8226 > 100 µM | UO-31 > 100 µM | MOLT-4 > 100 µM | HCC 2998 > 100 µM | SN12C > 100 µM | LOX IMVI > 100 µM

OCC1C(/C=C/c2ccoc2)ON2CCCC12 (configuration not stated)
inactive: OVCAR-5 > 100 µM | RXF 393 > 100 µM | OVCAR-4 > 100 µM | HT-29 > 100 µM | COLO 205 > 100 µM | SW-620 > 100 µM | NCI-H460 > 100 µM | SNB-19 > 100 µM | UO-31 > 100 µM | HCC 2998 > 100 µM | SN12C > 100 µM | LOX IMVI > 100 µM

Cc1cccc(C)c1NC(=O)C1C(=O)N(c2c(C)cccc2C)C(=O)/C1=N\NC(N)=S (configuration not stated)
inactive: OVCAR-5 > 100 µM | IGROV-1 > 100 µM | RXF 393 10.4 µM | OVCAR-4 > 100 µM | HT-29 > 100 µM | SW-620 > 100 µM | NCI-H460 > 100 µM | K562 92.9 µM | SK-MEL-5 > 100 µM | SNB-19 > 100 µM | RPMI-8226 89.5 µM | UO-31 > 100 µM | MOLT-4 75.3 µM | HCC 2998 > 100 µM | SN12C > 100 µM

Cc1nc(Nc2ccc(Cl)cc2)sc1C(=O)NNC(=O)C(=O)NN
inactive: OVCAR-5 17 µM | IGROV-1 19.1 µM | RXF 393 24.9 µM | OVCAR-4 18.1 µM | HT-29 16.6 µM | COLO 205 20.3 µM | SW-620 18 µM | NCI-H460 19.7 µM | K562 25.1 µM | SK-MEL-5 18.7 µM | SNB-19 21.3 µM | UO-31 16.6 µM | MOLT-4 19.5 µM | HCC 2998 20 µM | SN12C 16.1 µM | LOX IMVI 17.6 µM

Cc1c(C(=O)/C=C/c2ccc(N(C)C)cc2)c(=O)n(-c2ccccc2)n1C
inactive: OVCAR-5 > 100 µM | IGROV-1 > 100 µM | RXF 393 > 100 µM | HT-29 > 100 µM | COLO 205 > 100 µM | SW-620 > 100 µM | NCI-H460 > 100 µM | SNB-19 > 100 µM | UO-31 > 100 µM | MOLT-4 > 100 µM | HCC 2998 > 100 µM | SN12C > 100 µM | LOX IMVI > 100 µM

O=[N+]([O-])c1cccc(C2N3CCCCC3[C@@H]3c4[nH]c5ccccc5c4CCN23)c1 (some centres not stated)
inactive: OVCAR-5 16.9 µM | IGROV-1 14.9 µM | RXF 393 5.86 µM | OVCAR-4 16 µM | HT-29 6.82 µM | COLO 205 13.2 µM | SW-620 20 µM | NCI-H460 16.4 µM | K562 3.88 µM | SK-MEL-5 14.2 µM | SNB-19 19.7 µM | RPMI-8226 10.9 µM | UO-31 11.9 µM | MOLT-4 5.85 µM | SN12C 14.5 µM
